Laboratory results: patent publication EP4730355A1, “TYPING SYSTEM AND METHOD FOR HR-POSITIVE/HER2-NEGATIVE BREAST CANCER” (Lumitype Medical (Huzhou) Co., Ltd., priority 2023, dated 2024)
Each block holds one compound with its values, some of them ahead of it.

Tests used:
SNF4 tumors = test: PDO drug sensitivity testing of tyrosine kinase inhibitors; format: cell-based, human; details: for IC50: SNF4 tumors compared with other subtypes, PDO
Experimental: (§1) Briefly, the fresh breast cancer tissue is cut into small pieces using a sterile surgical knife. The tissue was digested and resuspended in 10 mL of TAC buffer, incubated for 3 minutes to remove red blood cells, and passed through a […] cell strainer (Corning). For passaging, 5 ml of harvesting solution (Trevigen, 3700-100-01) was used to digest the basement membrane extract (BME), which was incubated on ice for 1 hour. Subsequently, the organoids were centrifuged at 350 g for 5 minutes, washed in digestion buffer, and centrifuged. Next, 3 mL of TrypLE Express (Invitrogen) was added, and the organoids were incubated at room temperature for 3 minutes and then mechanically dissociated into small cell clusters using a pipette. The organoids were passaged every 2-3 weeks at a dilution ratio of 1:2-3.
(§2) Drug response testing of triple-negative breast cancer (TNBC) organoids was conducted according to the method of the published paper (Xiao Y, Ma D, Yang YS, Yang F, Ding JH, Gong Y, et al. Comprehensive metabolomics expands precision medicine for triple-negative breast cancer. CELL RES. 2022;32(5):477-90 doi 10.1038/s41422-022-00614-0.). Organoids without undergoing organoid drug treatment were harvested in good condition and digested into single cells. 25 microliters of organoid suspension was added to black cell-repellent surface of a 384-well plate with transparent bottoms (Greiner 781976-SIN) at 1 × 10^3 to 3 × 10^3 cells per well, and cultured for an additional 5-6 days prior to drug treatment. Organoids were co-cultured with the drug for 1 week and then tested for survival. According to the manufacturer's instructions, organoid cell survival rate was assessed by the CellTiter-Glo 3D cell survival assay (Promega, G9683).
Next, based on the identified key receptors, 12 tyrosine kinase inhibitors were selected to construct a "tyrosine kinase inhibitor combination," including tyrosine kinase inhibitors targeting the ErbB family (afatinib, lapatinib, pyrotinib), the PDGFR family (axitinib, sunitinib), the VEGFR family (foretinib, apatinib), the TAM receptor (sitravatinib), as well as some multi-target tyrosine kinase inhibitors (sorafenib, vandetanib, regorafenib, famitinib). The combination is used for PDO drug sensitivity testing to verify the tyrosine kinase inhibitor most sensitive to SNF4 tumors (FIG. 38). […] Combining the drug sensitivity results of the above 12 tyrosine kinase inhibitors and the targets of the above four drugs, VEGFR and PDGFR signaling were preliminarily identified as potential therapeutic vulnerabilities of SNF4 tumors.

SNF3-PDO = test: PDO drug response testing with CDK4/6 inhibitor and PARP inhibitor (CellTiter-Glo 3D cell survival assay); format: cell-based, human; details: for growth ability of SNF3-PDO: single drug; for PDO growth ability: SNF3 subtype and the non-SNF3 subtype (legend of FIGs. 31 and 32)
Experimental: as §1, §2
In order to gain an in-depth understanding of the biological characteristics of the SNF3 subtype, low-concentration 4-hydroxytamoxifen was used to induce PDO over an extended period to establish a model for studying acquired resistance to endocrine therapy (Xi Jin, Yi-Fan Zhou, Ding Ma, Shen Zhao, Cai-Jin Lin, Yi Xiao, et al. Integrative Molecular Classification of HR+/HER2- Breast Cancer Guides Precision Treatment. Nature Genetics under minor revision. 2023.02.26.).
In view of the high enrichment of SNF3 tumors in homologous recombination deficiency score, chromosomal instability, and cell cycle activity, the response of SNF3 PDOs to CDK4/6 inhibitors and PARP inhibitors was tested. […] In addition, regardless of BRCA mutation, the homologous recombination deficiency score of SNF3 tumors was much higher (FIG. 35). The above results indicated the therapeutic susceptibility of the SNF3 subtype to CDK4/6 inhibitors and PARP inhibitors; therefore, CDK4/6 inhibitors and PARP inhibitors or combinations thereof may be potential accurate treatment strategies for SNF3 tumors.

[1] = test system: advanced HR+/HER2- breast cancer; test: Real-world retrospective clinical cohort of advanced HR+/HER2- breast cancer; format: in vivo, human; details: SNF3 and SNF4 subtypes; advanced cohort of FUSCC, n = 277; p = 0.033
Text: Frequency tables and summary statistics were used to characterize data distribution. Wilcoxon test and Kruskal-Wallis test were used to compare continuous variables and categorical variables, and Pearson chi-square test and Fisher's exact test were used to compare unordered categorical variables. Survival curves were established using the Kaplan-Meier product-limit method and compared with the log-rank test to obtain RFS and PFS. RFS was defined as the time from diagnosis to the first recurrence or diagnosis of contralateral breast cancer. PFS was defined as the interval from the start of treatment to disease progression or death due to any cause (whichever occurs first), or to the time of the last PFS assessment for patients with progression-free survival. Univariate and multivariate Cox proportional hazards regression models were constructed to evaluate the hazard ratio (HR) and the corresponding 95% confidence interval (CI). All analyses were performed using R software package version 3.6.1 (https://cran.r-project.org/).
For deeper insights into the landscape of metastatic HR+/HER2- breast cancer, we constructed a real-world cohort of patients with advanced HR+/HER2- breast cancer from FUSCC and invited other three centers to participate in our real-world study. […] Their tumor progression were evaluated according to RECIST v1.1.

four subtypes of PDOs = test: PDO drug response testing of traditional endocrine therapies (CellTiter-Glo 3D cell survival assay); format: cell-based, human; details: compared among four subtypes of PDOs (n = 88)
Experimental: as §1, §2
The sensitivity of four subtypes of PDOs (n = 88) to three traditional endocrine therapies (estrogen deprivation, 4-hydroxytamoxifen (4OHtam), and fulvestrant) was compared on a PDO drug testing platform. […] In order to investigate the potential mechanism of SNF1 tumor sensitivity to endocrine therapy, the endocrine therapy-related pathways in the multi-omics data from Fudan University Shanghai Cancer Center were analyzed. […] In addition, the expression of endocrine therapy resistance pathways was also compared among the four subtypes.

[2] = test system: signaling pathway activated by PDGF in SNF4 tumor; test: PDGF-activated signaling pathway changes after tyrosine kinase inhibitor treatment; format: cell-based, human
[3] = test system: SNF4 subtype cancer-associated fibroblasts (CAF); test: Efficacy on patient-derived cancer cells co-cultured with fibroblasts; format: cell-based, human; details: sorafenib (1 µM)
Experimental: (F-G) The efficacy of sorafenib (1 µM) on patient-derived cancer cells co-cultured with fibroblasts. Scale bar: 100 micrometers. Cancer cells are treated with sorafenib three times. One representative experiment is shown. The experiment is repeated three times, and the results are similar.

IC50 (SNF4 tumors): lower than that of other subtypes
Compound: CNC(=O)c1cc(Oc2ccc(NC(=O)Nc3ccc(Cl)c(C(F)(F)F)c3)c(F)c2)ccn1 [regorafenib]
cell viability of SNF4 tumors (SNF4 tumors; after treatment, Wilcoxon test): significantly decreased

Compound: CCN1CCN(Cc2ccc(Nc3ncc(F)c(-c4cc(F)c5nc(C)n(C(C)C)c5c4)n3)nc2)CC1 [abemaciclib, N-[5-[(4-ethyl-1-piperazinyl)methyl]-2-pyridinyl]-5-fluoro-4-[4-fluoro-2-methyl-1-(1-methylethyl)-1H-benzimidazol-6-yl]-2-pyrimidinamine]
growth ability of SNF3-PDO (SNF3-PDO): significantly inhibited
PDO growth ability (SNF3-PDO): significantly inhibited

Compound: C[C@]12CC[C@@H]3c4ccc(O)cc4C[C@@H](CCCCCCCCC[S+]([O-])CCCC(F)(F)C(F)(F)F)[C@H]3[C@@H]1CC[C@@H]2O (some centres unmarked) [fulvestrant]
progression-free survival (PFS) [1]: worse progression-free survival
survival rate (four subtypes of PDOs; SNF1-PDO): lowest survival rate
survival rate (four subtypes of PDOs; SNF4-PDO): relatively higher survival rate

IC50 (SNF4 tumors): lower than that of other subtypes
signaling pathway activated by PDGF [2]: significantly downregulated
Compound: CCN(CC)CCN1CCc2[nH]c(/C=C3\C(=O)Nc4ccc(F)cc43)c(C)c2C1=O [famitinib]

IC50 (SNF4 tumors): lower than that of other subtypes
signaling pathway activated by PDGF [2]: significantly downregulated
Compound: CNC(=O)c1cc(Oc2ccc(NC(=O)Nc3ccc(Cl)c(C(F)(F)F)c3)cc2)ccn1 [sorafenib]
sensitivity of SNF4 subtype cancer-associated fibroblasts (CAF) [3]: sensitive

Compound: 4-hydroxytamoxifen
sensitivity to endocrine therapy (SNF3-PDO; SNF3-PDO after long-term induction with low-concentration 4-hydroxytamoxifen, unlike other subtypes): less sensitive to endocrine therapy
survival rate (four subtypes of PDOs; SNF1-PDO): lowest survival rate
survival rate (four subtypes of PDOs; SNF4-PDO): relatively higher survival rate

Compound: O=C(c1cc(Cc2n[nH]c(=O)c3ccccc23)ccc1F)N1CCN(C(=O)C2CC2)CC1 [olaparib]
growth ability of SNF3-PDO (SNF3-PDO): significantly inhibited
PDO growth ability (SNF3-PDO): significantly inhibited
